Assay results published in patent US9358276B2, “Methods of diagnosing and treating small intestinal bacterial overgrowth (SIBO) and SIBO-related conditions” (Cedars-Sinai Medical Center, priority 1999, dated 2016).
Marks after values point to notes of the source that are not given here.

Tests used:
[1] = tested on: SIBO-related hyperalgesia; test: Treatment of SIBO-related hyperalgesia (cases); format: in vivo, human
Procedure: Two adult female subjects with IBS required additional pharmacologic manipulations to treat their SIBO-related hyperalgesia. In the first case, SIBO was eradicated by antibiotic treatment. However, the subject complained of persistent feelings of rectal distension, consistent with residual hyperalgesia related to SIBO. The subjected was then administered Colpermin (peppermint oil) capsules and Elavil (5 mg taken at night) that alleviated their SIBO-related hyperalgesic symptoms, presumably by reducing intestinal wall tension and decreasing mechanoreceptor activation.
The second subject with a diagnosis of IBS was also found to have SIBO, as detected by LBHT. Their SIBO was eradicated by a combined treatment with antibiotic, intestinal lavage with Go-Lytely, and cisapride (10 mg tid) to increase their abnormally low phase III interdigestive motility. After eradication of SIBO, this subject similarly complained of persistent SIBO-related hyperalgesic symptoms of the bowel.

upper gut transit [2] = test: Upper gut transit time by lactulose breath hydrogen test after oleate or oleic acid; format: in vivo, human; settings: 4 grams of oleic acid
upper gut transit [3] = test: as above; format: in vivo, human; settings: for upper gut transit time: case, diarrhea-predominant IBS
Description: In a preliminary study, five patients with persistent diarrhea for 3 to 22 months, (one each due to vagal denervation, ileal resection for Crohn's disease, and vagotomy and antrectomy, and two due to idiopathic causes) were studied. […] This test relies on the metabolism of certain carbohydrate materials (e.g. lactulose) by the microbial flora within the caecum. By generating gas which can be detected in the expired air, it is possible to make some estimation about the initial arrival of the administered material within the colon.
Each patient received orally in random order, 0, 1.6 or 3.2 g of sodium oleate in 25 mL Ensure (Ross), followed by 100 mL water. Thirty minutes after each dose of oleate, patients received 10 g lactulose orally, followed by 25 mL water. Breath samples were collected in commercially available breath testing bags (Quintron, Menomonee Falls, Wis.) every 10-15 minutes, and the hydrogen content of the samples was measured using a breath analyzer (Microlyzer Model 12, Quintron Instruments, Menomonee Falls, Wis.), calibrated against gas samples of known hydrogen concentration. With a syringe, a 40-mL sample of the expired breath was withdrawn from the collection bag and analyzed immediately for hydrogen concentration (ppm). The hydrogen concentration value from each sample was plotted against time. Upper gut transit time was defined as the time in minutes from ingestion of lactulose (t0) until a rise of H2 of >10 ppm. Data were further analyzed using 1-way repeated measures analysis of variance (ANOVA)(See Table 4).
The effect of an active lipid on transit time was determined in 8 normal human subjects (1 male and 7 females with a mean age of 35±2.6 years [SE]) and 45 patients (20 males and 25 females with a mean age of 49.1±2.5 [SE], age range from 18 to 90 years) with chronic diarrhea (i.e., continuous diarrhea for more than two months) associated with a wide variety of diagnoses and conditions (e.g., Crohn's disease; irritable bowel syndrome; short bowel syndrome; Indiana pouch; AIDS; ulcerative colitis; vagotomy; antrectomy; ileostomy; partial and complete colectomy; colon cancer; diabetes mellitus type 1; pancreatic insufficiency; radiation enteropathy; esophagectomy/gastric pull-up; total and subtotal gastrectomy; gastrojejunostomy), made by referring gastroenterologists. The method was the same as described above, except oleic acid (Penta Manufacturing, Livingston, N.J.) replaced sodium oleate in 50 mL of Ensure emulsion. All subjects refrained from taking antibiotics for at least two weeks before each testing date and during stool measurement periods. Patients were also instructed to refrain from anti-diarrheal drugs, laxatives, somatostatin analogues or anticholinergics for at least 48 hours before each test. In both the normal and patient groups, there was a significant slowing of upper gut transit time in response to oleic acid, as summarized in Table 5 below (p<0.001).

[4] = tested on: rapid upper gut transit and diarrhea; test: Continued pre-meal oleate/oleic acid treatment: diarrhea, stool output, symptoms; format: in vivo, human
Description: Continuing oleic acid treatment at home was offered to Aresponders≅ (i.e., patients who experienced a greater than 100% increase in baseline transit time with 3.2 g oleic acid). Of the 36 responders out of the original 45 patients, 18 provided records of stool volume and frequency on- and off-treatment for comparison. The inconvenient and unappealing nature of stool collection and measurement were the primary reasons reported by responders who chose not to participate in stool collection. After completing a set of three preliminary breath hydrogen tests, each participating responder was asked to refrain from taking oleic acid for two days in order to measure off-treatment stool output for a 24-hour period. Patients were issued a stool pattern record form and a stool collection container with graduated volume markings to record the frequency and volume of bowel movements. After two days without oleic acid, each patient took 3.2 g of oleic acid mixed with 25 mL of Ensure emulsion three times a day, 30 minutes before breakfast, lunch and dinner. After taking oleic acid for two days, patients recorded stool output for another 24-hour period. With this oleic acid emulsion treatment, stool frequency decreased from 6.9±0.8 to 5.4±0.9 bowel movements per 24-hour period (p<0.05), and stool volume decreased from 1829.0±368.6 to 1322.5±256.9 per 24-hour period (p<0.05).
The patient was a person with a history of adolescent-onset, persistent diarrhea. […] They presented with complaints of excessive gas, postprandial bloating, diarrhea and urgency, and 3 to 7 liquid bowel movements per day. Their upper gut transit times were (min) 30 (0 g oleic acid), 117 (1.6 g oleic acid) and 101 (3.2 g oleic acid).

intestinal transit = test: Intestinal transit in multi-fistulated dogs, cumulative % recovery of 99mTc-DTPA; format: in vivo, dog
Description: The experiments described below are based on a previously described chronic multi-fistulated dog model, employing surgically fistulated male or female mongrel dogs weighing about 25 kg each. (Lin, H. C. et al., Inhibition of gastric emptying by glucose depends on length of intestine exposed to nutrient, Am. J. Physiol. 256:G404-G411 [1989]). The small intestines of the dogs were each about 300 cm long from the pylorus to the ileal-cecal valve. The duodenal fistula was situated 15 cm from the pylorus; the mid-gut fistula was situated 160 cm from the pylorus. Occluding Foley catheters (balloon catheters that are inflated to produce a water-tight seal with the lumenal surface) were placed into the distal limb of a duodenal fistula and a mid-gut fistula, fat or other test agents were administered lumenally to the thus compartmentalized Aproximal≅ section of the gut, i.e., between the fistulas, or to the compartmentalized Adistal≅ section of the gut, i.e., beyond the mid-gut fistula. Perfusate was pumped into a test section through the catheter at a rate of 2 mL/minute. Test agents were administered along with buffer perfusate, but some test agents were administered intravenously, where specifically noted.
Intestinal transit measurements were made by tracking the movement of a liquid marker across the approximately 150 cm intestinal test segment by delivering about 20 μCi ^99mTc chelated to diethyltriamine pentaacetic acid (DTPA)(Cunningham, K. M. et al., Use of technicium-99m (V)thiocyanate to measure gastric emptying of fat, J. Nucl. Med. 32:878-881 [1991]) as a bolus into the test segment after 60 minutes of a 90-minute perfusion. The output from the mid-gut fistula was collected every 5 min thereafter for 30 minutes, which period is illustrated in FIGS. 9-23. Using a matched dose of ^99mTc to represent the original radioactivity (Johansson, C., Studies of gastrointestinal interactions, Scand. J. Gastroenterol. 9(Suppl 28):1-60 [1974]; Zierler, K., A simplified explanation of the theory of indicator dilution for measurement of fluid flow and volume and other distributive phenomena, Bull. John Hopkins 103:199-217 [1958]), the radioactivity delivered into the animal as well as the radioactivity of the recovered fistula output were all measured using a gamma well counter. After correcting all counts to time zero, intestinal transit was calculated as the cumulative percent recovery of the delivered ^99mTc-DTPA. This method has been well validated over the years and appreciated for its advantage of minimal inadvertent marker loss. […] There was a very high level of marker recovery, with 90% of the marker recovered by 30 minutes and 98% of the marker recovered by 45 minutes.

ileal brake = settings: rats, subcutaneous administration; Brown et al. 1993; cited from earlier work
SIBO [5] = test: Comparison of antibiotic regimes for eradicating SIBO, follow-up lactulose breath hydrogen test (LBHT); format: in vivo, human; settings: follow-up LBHT
Procedure: Subjects were tested after an overnight fast. […] Each breath sample was then analyzed for hydrogen content with a gas chromatograph (Quintron Model DP, Quintron Instrument Co., Division of E.F. Brewer Co, Menomonee Falls, Wis. 53051), standardized using a QuinGas standard as instructed by the manufacturer. Hydrogen peaks were plotted before and after an antimicrobial treatment regimen for comparison. The normal range for the second hydrogen peak was 0 to 20 ppm. Subjects referred to the Cedars-Sinai GI Motility Program for a lactulose breath hydrogen test (LBHT) to assess SIBO were entered into a database. Those that tested positive for SIBO were given antibiotic treatment by their referring physician and in some cases, returned for a follow-up LBHT to assess eradication of SIBO. During the follow-up LBHT, subjects were asked which antibiotic they were given to treat their SIBO. The eradication rate of each antibiotic was evaluated. Of the 771 subjects in the database, 561 (73%) tested positive for SIBO. […] (See Table 1 below). […] None of the commonly used antibiotics was universally successful in eradicating overgrowth.

SIBO [6] = test: Case: autism with bowel symptoms, Augmentin; format: in vivo, human; settings: one patient

For `CN(C)CCC=C1c2ccccc2CCc2ccccc21` [Elavil, amitriptyline], the SIBO-related hyperalgesic symptoms ([1]; first subject, Colpermin capsules and Elavil (5 mg at night) together) was “alleviated”.

In the case of `COc1cc(N)c(Cl)cc1C(=O)NC1CCN(CCCOc2ccc(F)cc2)CC1OC` (stereo not drawn) [cisapride], the “eradication of SIBO” value ([1]; second subject, combined antibiotic, lavage with Go-Lytely and cisapride (10 mg tid)) is reported as “eradicated”.

With `CCCCCCCC/C=C\CCCCCCCC(=O)O` [oleic acid] the mean transit time (upper gut transit [2]; IBD patients (n=18)) was 114.6 ± 16.0 min, the mean transit time (upper gut transit [2]; normal subjects (n=5)) was 136.0 ± 15.4 min and the “responders (greater than 100% increase in baseline transit time)” value (upper gut transit [3]; 3.2 g oleic acid, out of the original 45 patients) was 36. For the same molecule, the “Transit time (mean ± SE)” value (upper gut transit [3]; Normal subjects (8), 1.6 g oleic acid in 50 mL Ensure) was 116 ± 11.1 min, the “Transit time (mean ± SE)” value (upper gut transit [3]; Normal subjects (8), 3.2 g oleic acid) was 140 ± 11.5 min and the “Transit time (mean ± SE)” value (upper gut transit [3]; Patients with chronic diarrhea (45), 1.6 g oleic acid) was 57.2 ± 4.5 min. The “Transit time (mean ± SE)” value (upper gut transit [3]; Patients with chronic diarrhea (45), 3.2 g oleic acid) was 83.3 ± 5.2 min, the “upper gut transit time” value (upper gut transit [3]; 1.6 g oleic acid) was 117 min and the “upper gut transit time” value (upper gut transit [3]; 3.2 g oleic acid) was 101 min. For the same molecule, the “stool frequency, bowel movements per 24-hour period” value ([4]; 18 responders, 3.2 g in 25 mL Ensure three times a day, off-treatment 6.9±0.8) was 5.4±0.9, the “stool volume per 24-hour period” value ([4]; 18 responders, on treatment, off-treatment 1829.0±368.6) was 1322.5±256.9 and the “symptoms of gaseousness, bloating and rectal urgency” value ([4]; case, diarrhea-predominant IBS) was “complete relief”. For the same molecule, the bowel frequency ([4]; case, diarrhea-predominant IBS, continuing treatment) was “single, solid bowel movement per day” and the adverse effect reported ([4]; only adverse effect reported by any patient) was “slight and transient burning sensation in the mouth or throat”.

For `Cc1nccn1CC1CCc2c(c3ccccc3n2C)C1=O` (stereo not drawn) [ondansetron], the “Transit Across Proximal Gut (Cumulative % Marker Recovered)” value (intestinal transit; Buffer + NE + Ond perfused lumenally 0.7 mg/kg/h) was 63.0 ± 4.4^b %, the marker recovery (intestinal transit; IV PYY + ondansetron 0.7 mg/kg/h in proximal gut) was 78.3±4.8% and the marker recovery (intestinal transit; IV PYY + ondansetron in distal gut) was 12.9±12.9%. The marker recovery (intestinal transit; distal gut 5-HT + ondansetron 0.7 mg/kg bolus in distal gut) was 79.5±2.4%, the marker recovery (intestinal transit; distal gut 5-HT + ondansetron 0.7 mg/kg bolus in proximal gut) was 73.8±9.5% and the marker recovery (intestinal transit; ileal brake + 6.25 mg ondansetron bolus, proximal gut) was 35.4%. For the same molecule, the marker recovery (intestinal transit; ileal brake + 12.5 mg ondansetron bolus, proximal gut) was 55.8%, the marker recovery (intestinal transit; ileal brake + 25 mg ondansetron bolus, proximal gut) was 77.6% and the marker recovery (intestinal transit; ileal brake + intravenous ondansetron 0.15 mg/kg/1.5 h, n=2) was 13±2.0%. It also gave a marker recovery (intestinal transit; ileal brake + lumenal ondansetron 0.7 mg/kg/h in proximal gut, n=2) of 78±2.4%, a marker recovery (intestinal transit; ileal brake + ondansetron in distal gut, n=4) of 22.8±2.6% and a marker recovery (intestinal transit; ileal brake + ondansetron in proximal gut, n=4) of 68.5±2.7%. The marker recovery (intestinal transit; intravenous norepinephrine + ondansetron 0.7 mg/kg/h in proximal gut) was 63.4%, the marker recovery (intestinal transit; lumenal buffer + lumenal ondansetron, Buffer-NS 96.0±4.0%) was 57.9±15.9% and the marker recovery (intestinal transit; lumenal oleate + lumenal ondansetron 0.7 mg/kg bolus, proximal gut) was 73.7±10.6%. The “ileal brake induced by ileal infusion of lipid” value (ileal brake) was “abolished the ileal brake” and the “intestinal transit of a baked bean meal” value (ileal brake) was “delayed”.

For Augmentin, the “% Patients with SIBO Eradicated” value (SIBO [5]) was 50%, the concentration and behavior (SIBO [6]) was “some positive concentration and behavioral changes” and the bowel habits (SIBO [6]; 500 mg twice a day for ten days) was “substantial improvement”.
